According to patent EP0199888B1, “Control of heme and iron concentrations in body tissues” (THE ROCKEFELLER UNIVERSITY, priority 1985, dated 1986):

What was measured:
[1] = tested on: bile duct cannulated rats; assay: Excretion of heme and bilirubin in bile after infusion of heat-damaged erythrocytes; assay type: in vivo
[2] = tested on: bile duct cannulated rats; assay: Output of biliary iron by graphite furnace atomic absorption analysis; assay type: in vivo; settings: after administration of Sn-PP; representative study, typical of all animals studied
[3] = tested on: bile duct cannulated rats; assay: Excretion of heme and bilirubin in bile after infusion of exogenous heme

Structure (SMILES)	biliary heme excretion ([1]; 8 rats, heat-damaged erythrocytes i.v. bolus (equivalent to 8.5 umol heme/kg b.w.) plus Sn-PP 10 umol/kg b.w. i.v., pyridine hemochromogen method)	combined amounts of heme plus bilirubin in bile ([1]; heat-damaged erythrocytes plus Sn-PP 10 umol/kg b.w. i.v., average, similar in the control group)	increase in biliary bilirubin output ([1]; heat-damaged erythrocytes plus Sn-PP 10 umol/kg b.w. i.v., in all but one Sn-PP treated animal)	output of biliary iron [2]	biliary heme excretion ([3]; 5 rats, heme 6.1 µmol/kg b.w. i.v. bolus plus Sn-PP 10 µmol/kg b.w. i.v. at the same time)	amounts of heme excreted in bile relative to control animals treated with heme alone ([3]; heme 6.1 µmol/kg b.w. plus Sn-PP 10 µmol/kg b.w. i.v.)	increase in biliary bilirubin resulting from the infusion of heme ([3]; heme 6.1 µmol/kg b.w. plus Sn-PP 10 µmol/kg b.w. i.v., all animals)	amounts of heme excreted in bile ([3]; heme 6.1 µmol/kg b.w. plus Sn-PP 10 µmol/kg b.w. i.v., mean)	total amount of exogenous heme recovered in the bile as both heme and bilirubin ([3]; heme alone, 6.1 µmol/kg b.w. i.v. bolus, average)	total amount of heme excreted in the bile ([3]; heme alone, 6.1 µmol/kg b.w. i.v. bolus, average of 5 rats)
C=Cc1c2[n-]c(c1C)/C=c1\[n-]/c(c(C)c1C=C)=C\c1[n-]c(c(CCC(=O)O)c1C)C=c1[n-]/c(c(C)c1CCC(=O)O)=C\2.[Sn+4] [Sn-PP, tin protoporphyrin-IX]	prompt and marked increase	about 50 % of the dose of heme administered	greatly diminished	incresed markedly	prompt and marked increase	3-4 fold	diminished	51 % of the dose of heme injected		
C=CC1=C(C)c2cc3[n-]c(cc4[n-]c(cc5nc(cc1n2)C(C)=C5C=C)c(C)c4CCC(=O)O)c(CCC(=O)O)c3C.[Fe+2] [heme, ferroprotoporphyrin IX]									32 % of the dose administered	14 % of the dose injected
